Laboratory results reported in ChEMBL document CHEMBL3112450, “Synthesis and in vitro antitumor evaluation of primary amine substituted quinazoline linked benzimidazole” (Bioorg Med Chem Lett, 2014).

Tests used:
Format in all cases: functional
[1] = Cytotoxicity against human NCI-ADR-RES cells after 48 hrs by SRB assay
[2] = Cytotoxicity against human OVCAR4 cells assessed as cell growth at 10^-6 M after 48 hrs by SRB assay; conditions: OVCAR-4, 48 h, read-out: Activity
HCT-15 = assay: Cytotoxicity against human HCT15 cells after 48 hrs by SRB assay; conditions: HCT-15, 48 h
[3] = Cytotoxicity against human OVCAR5 cells assessed as cell growth at 10^-7 M after 48 hrs by SRB assay; conditions: OVCAR-5, 48 h, read-out: Activity
CCRF-CEM = assay: Cytotoxicity against human CCRF-CEM cells assessed as cell growth at 10^-8 M after 48 hrs by SRB assay; conditions: read-out: Activity
M14 [4] = assay: Cytotoxicity against human M14 cells assessed as cell growth at 10^-7 M after 48 hrs by SRB assay; conditions: M14, 48 h, read-out: Activity
NCI-H322M = assay: Cytotoxicity against human NCI-H322M cells assessed as cell growth at 10^-7 M after 48 hrs by SRB assay; conditions: read-out: Activity
HT-29 [5] = assay: Cytotoxicity against human HT-29 cells assessed as cell growth at 10^-6 M after 48 hrs by SRB assay; conditions: HT-29, 48 h, read-out: Activity
SR = assay: Cytotoxicity against human SR cells after 48 hrs by SRB assay
NCI-H23 [6] = assay: Cytotoxicity against human NCI-H23 cells assessed as cell growth at 10^-7 M after 48 hrs by SRB assay; conditions: NCI-H23, 48 h, read-out: Activity
NCI-H23 [7] = assay: Cytotoxicity against human NCI-H23 cells after 48 hrs by SRB assay; conditions: NCI-H23, 48 h
SK-MEL-28 = assay: Cytotoxicity against human SK-MEL-28 cells assessed as cell growth at 10^-8 M after 48 hrs by SRB assay; conditions: SK-MEL-28, 48 h, read-out: Activity
DU-145 [8] = assay: Cytotoxicity against human DU145 cells assessed as cell growth at 10^-4 M after 48 hrs by SRB assay; conditions: DU-145, 48 h, read-out: Activity
HT-29 [9] = assay: Cytotoxicity against human HT-29 cells assessed as cell growth at 10^-4 M after 48 hrs by SRB assay; conditions: HT-29, 48 h, read-out: Activity
DU-145 [10] = assay: Cytotoxicity against human DU145 cells assessed as cell growth at 10^-8 M after 48 hrs by SRB assay; conditions: DU-145, 48 h, read-out: Activity
U-251 [11] = assay: Cytotoxicity against human U251 cells assessed as cell growth at 10^-8 M after 48 hrs by SRB assay; conditions: U-251, 48 h, read-out: Activity
SF-539 [12] = assay: Cytotoxicity against human SF539 cells after 48 hrs by SRB assay; conditions: SF-539, 48 h
TK-10 [13] = assay: Cytotoxicity against human TK10 cells assessed as cell growth at 10^-7 M after 48 hrs by SRB assay; conditions: TK-10, 48 h, read-out: Activity
[14] = Cytotoxicity against human NCI-ADR-RES cells assessed as cell growth at 10^-4 M after 48 hrs by SRB assay; conditions: read-out: Activity
T47D [15] = assay: Cytotoxicity against human T47D cells assessed as cell growth at 10^-6 M after 48 hrs by SRB assay; conditions: read-out: Activity
786-0 = assay: Cytotoxicity against human 786-0 cells assessed as cell growth at 10^-7 M after 48 hrs by SRB assay; conditions: 786-0, 48 h, read-out: Activity
SF-539 [16] = assay: Cytotoxicity against human SF539 cells assessed as cell growth at 10^-7 M after 48 hrs by SRB assay; conditions: SF-539, 48 h, read-out: Activity
TK-10 [17] = assay: Cytotoxicity against human TK10 cells assessed as cell growth at 10^-6 M after 48 hrs by SRB assay; conditions: TK-10, 48 h, read-out: Activity
NCI-H23 [18] = assay: Cytotoxicity against human NCI-H23 cells assessed as cell growth at 10^-8 M after 48 hrs by SRB assay; conditions: NCI-H23, 48 h, read-out: Activity
CAKI-1 [19] = assay: Cytotoxicity against human Caki1 cells assessed as cell growth at 10^-6 M after 48 hrs by SRB assay; conditions: CAKI-1, 48 h, read-out: Activity
[20] = Cytotoxicity against human UO31 cells assessed as cell growth at 10^-7 M after 48 hrs by SRB assay; conditions: UO-31, 48 h, read-out: Activity
SF-295 = assay: Cytotoxicity against human SF295 cells assessed as cell growth at 10^-6 M after 48 hrs by SRB assay; conditions: SF-295, 48 h, read-out: Activity
HOP-92 [21] = assay: Cytotoxicity against human HOP92 cells after 48 hrs by SRB assay; conditions: HOP-92, 48 h
OVCAR-3 = assay: Cytotoxicity against human OVCAR3 cells after 48 hrs by SRB assay; conditions: OVCAR-3, 48 h
HL-60(TB) = assay: Cytotoxicity against human HL-60(TB) cells assessed as cell growth at 10^-8 M after 48 hrs by SRB assay; conditions: HL-60, 48 h, read-out: Activity
CAKI-1 [22] = assay: Cytotoxicity against human Caki1 cells assessed as cell growth at 10^-8 M after 48 hrs by SRB assay; conditions: CAKI-1, 48 h, read-out: Activity
T47D [23] = assay: Cytotoxicity against human T47D cells assessed as cell growth at 10^-8 M after 48 hrs by SRB assay; conditions: read-out: Activity
M14 [24] = assay: Cytotoxicity against human M14 cells after 48 hrs by SRB assay; conditions: M14, 48 h
HCT-116 = assay: Cytotoxicity against human HCT116 cells assessed as cell growth at 10^-7 M after 48 hrs by SRB assay; conditions: HCT-116, 48 h, read-out: Activity
U-251 [25] = assay: Cytotoxicity against human U251 cells assessed as cell growth at 10^-7 M after 48 hrs by SRB assay; conditions: U-251, 48 h, read-out: Activity
BT-549 = assay: Cytotoxicity against human BT549 cells assessed as cell growth at 10^-6 M after 48 hrs by SRB assay; conditions: BT-549, 48 h, read-out: Activity
HOP-92 [26] = assay: Cytotoxicity against human HOP92 cells assessed as cell growth at 10^-7 M after 48 hrs by SRB assay; conditions: HOP-92, 48 h, read-out: Activity
[27] = Cytotoxicity against human UO31 cells assessed as cell growth at 10^-6 M after 48 hrs by SRB assay; conditions: UO-31, 48 h, read-out: Activity
COLO 205 = assay: Cytotoxicity against human COLO205 cells assessed as cell growth at 10^-8 M after 48 hrs by SRB assay; conditions: COLO 205, 48 h, read-out: Activity
NCI-H522 = assay: Cytotoxicity against human NCI-H522 cells assessed as cell growth at 10^-7 M after 48 hrs by SRB assay; conditions: NCI-H522, 48 h, read-out: Activity

For `C=CCn1c(C)nc2ccc(Nc3nc(Nc4ccc5nc(C)n(CC=C)c5c4)c4ccccc4n3)cc21`, which GI50 [1] is on record?
The GI50 was 2.22 µM.

What about the LC50 [1] of the same compound?
The LC50 was over 100 µM.

And the TGI [1]?
The TGI was 6.07 µM.

And the growth at 1 µM [2]?
The growth at 1 µM was 84%.

And the GI50 (HCT-15)?
Its GI50 is 1.77 µM.

What about the TGI (HCT-15) of the same compound?
The TGI was 3.55 µM.

And the growth at 0.1 µM [3]?
The growth at 0.1 µM was 91%.

And the growth at 0.01 µM (CCRF-CEM)?
The growth at 0.01 µM was 97%.

What about the growth at 0.1 µM (M14 [4]) of the same compound?
The growth at 0.1 µM was 94%.

And the growth at 0.1 µM (NCI-H322M)?
The growth at 0.1 µM was 90%.

What about the growth at 1 µM (HT-29 [5]) of the same compound?
The growth at 1 µM was 101%.

And the GI50 (SR)?
The GI50 was 1.52 µM.

And the LC50 (SR)?
The LC50 was over 100 µM.

What about the TGI (SR) of the same compound?
The TGI was 3.98 µM.

What about the growth at 0.1 µM (NCI-H23 [6]) of the same compound?
Its growth at 0.1 µM is 91%.

And the GI50 (NCI-H23 [7])?
The GI50 was 1.72 µM.

What about the TGI (NCI-H23 [7]) of the same compound?
The TGI was 3.23 µM.

What about the growth at 0.01 µM (SK-MEL-28) of the same compound?
The growth at 0.01 µM was 98%.

What about the growth at 100 µM (DU-145 [8]) of the same compound?
The growth at 100 µM was -75%.

What about the growth at 100 µM (HT-29 [9]) of the same compound?
Its growth at 100 µM is -16%.

What about the growth at 0.01 µM (DU-145 [10]) of the same compound?
Its growth at 0.01 µM is 102%.

What about the growth at 0.01 µM (U-251 [11]) of the same compound?
The growth at 0.01 µM was 96%.

And the GI50 (SF-539 [12])?
The GI50 was 1.71 µM.

And the LC50 (concentration giving 50% net cell kill) (SF-539 [12])?
Its LC50 (concentration giving 50% net cell kill) is 5.71 µM.

And the TGI (SF-539 [12])?
Its TGI is 3.12 µM.

And the growth at 0.1 µM (TK-10 [13])?
Its growth at 0.1 µM is 99%.

And the growth at 100 µM [14]?
The growth at 100 µM was -18%.

And the growth at 1 µM (T47D [15])?
Its growth at 1 µM is 80%.

And the growth at 0.1 µM (786-0)?
Its growth at 0.1 µM is 98%.

What about the growth at 0.1 µM (SF-539 [16]) of the same compound?
Its growth at 0.1 µM is 94%.

What about the growth at 1 µM (TK-10 [17]) of the same compound?
Its growth at 1 µM is 116%.

And the growth at 0.01 µM (NCI-H23 [18])?
Its growth at 0.01 µM is 96%.

What about the growth at 1 µM (CAKI-1 [19]) of the same compound?
Its growth at 1 µM is 90%.

And the growth at 0.1 µM [20]?
Its growth at 0.1 µM is 80%.

And the growth at 1 µM (SF-295)?
The growth at 1 µM was 97%.

What about the GI50 (HOP-92 [21]) of the same compound?
The GI50 was 1.37 µM.

And the TGI (HOP-92 [21])?
The TGI was 2.93 µM.

And the GI50 (OVCAR-3)?
The GI50 was 1.7 µM.

What about the TGI (OVCAR-3) of the same compound?
Its TGI is 3.08 µM.

What about the growth at 0.01 µM (HL-60(TB)) of the same compound?
Its growth at 0.01 µM is 97%.

And the growth at 0.01 µM (CAKI-1 [22])?
The growth at 0.01 µM was 93%.

What about the growth at 0.01 µM (T47D [23]) of the same compound?
The growth at 0.01 µM was 96%.

What about the GI50 (M14 [24]) of the same compound?
Its GI50 is 1.62 µM.

What about the TGI (M14 [24]) of the same compound?
Its TGI is 3.04 µM.

What about the growth at 0.1 µM (HCT-116) of the same compound?
Its growth at 0.1 µM is 99%.

And the growth at 0.1 µM (U-251 [25])?
Its growth at 0.1 µM is 94%.

And the growth at 1 µM (BT-549)?
Its growth at 1 µM is 86%.

And the growth at 0.1 µM (HOP-92 [26])?
The growth at 0.1 µM was 86%.

What about the growth at 1 µM [27] of the same compound?
Its growth at 1 µM is 71%.

And the growth at 0.01 µM (COLO 205)?
Its growth at 0.01 µM is 105%.

What about the growth at 0.1 µM (NCI-H522) of the same compound?
Its growth at 0.1 µM is 91%.
